Results from patent US20170008888A1 (KYORIN PHARMACEUTICAL CO., LTD., priority 2014, published 2017).

Tested on: human PBMCs
Assay: Human PBMC TNF-α response to endotoxin (ELISA)
Format: cell-based
Details: 0.1 μg/ml LPS 16 h, read-out: EC50 for the inhibition of the human PBMC TNF-α response to endotoxin, ave. ± S.D.
Procedure: Human PBMCs (Astarte Biologics, Redmond, Wash.) were seeded at 2e6 cells/ml in RPMI 1640 containing 10% (v/v) charcoal-dextran treated, heat inactivated FBS (Omega Scientific, Tarzana, Calif.), 0.05 mM 2-Mercaptoethanol (Sigma-Aldrich, St. Louis, Mo.), and 1×Pen/Strep Amphotericin B (Lonza, Allendale, N.J.). Cells were pre-treated with test compounds (10 μM down by ⅕ in a 4-point serial dilution series) for 1 h at 37° C. in a humidified atmosphere at 5% CO2. Cells were then stimulated with 0.1 μg/ml lipopolysaccharide (LPS) from E. coli 0111:B4 (EMD Millipore, Billerica, Mass.) for 16 h at 37° C. in a humidified atmosphere at 5% CO2. Supernatant was collected and a 25-fold dilution was analyzed for TNF-α concentration using an ELISA kit from Life Technologies (Grand Island, N.Y.) according to the manufacturer's instructions. Absorbance at 450 nm was read using the Synergy 2 multi-detection microplate reader (BioTek Instruments, Winooski, Vt.).

Compound	EC50
CN1C(=O)c2ccccc2N(C)c2cc(NC3CCCCC3O)ncc21 (stereo not drawn) [Compound T108]	3.01 µM
CN1C(=O)c2ccccc2N(C)c2cc(N[C@@H]3CCCCC3O)ncc21 (stereo partly drawn) [Compound T109]	2.16 µM
CN1C(=O)c2ccccc2N(C)c2cc(N[C@@H]3CCC[C@H](O)C3)ncc21 [Compound T111]	1.92 µM
CCO[C@@H]1CCCC[C@H]1Nc1cc2c(cn1)N(C)C(=O)c1ccccc1N2C [Compound T112]	2.36 µM
Cc1cccc2c1N(C)c1cc(N[C@H]3CC[C@H](O)CC3)ncc1N(C)C2=O [Compound T121]	2.99 µM
CN1C(=O)c2ccccc2N(C)c2cc(N[C@H]3CC[C@@](C)(O)CC3)ncc21 [Compound T123]	2.1 µM
CN1C(=O)c2ccccc2N(C)c2cc(NC3CCN(S(=O)(=O)CCN4CCCC4)CC3)ncc21 [Compound T130]	2.46 µM
CN1C(=O)c2ccccc2N(C)c2cc(N[C@H]3C[C@@H](O)C3)ncc21 [Compound T131]	6.06 µM
CN1C(=O)c2ccccc2N(C)c2cc(N[C@@H]3CC[C@@H](O)C3)ncc21 [Compound T132]	3.28 µM
CN1C(=O)c2ccccc2N(C)c2cc(N[C@H]3CC[C@H](N)C3)ncc21 [Compound T133]	9.84 µM
CN1C(=O)c2ccccc2N(C)c2cc(N[C@H]3CC[C@@H](O)C3)ncc21 [Compound T134]	3.68 µM
CN1C(=O)c2ccccc2N(C)c2cc(N[C@H]3C[C@H](N)C3)ncc21 [Compound T135]	9.2 µM
